Experimental data published in patent US7351398B2, “Stabilization of radiopharmaceutical compositions using hydrophilic thioethers” (CIS bio international, priority 2000, dated 2008).

What was measured:
[1] = HPLC RCP of 99mTc-labelled depreotide with hydrophilic thioether additives; assay type: physicochemical; details: for 3.5 hr RCP / 6.5 hr RCP / Initial RCP: 99mTc-depreotide kit, additive 4 mg in 100 μL, heated
Experimental: [drawing 16] These compounds and L-methionine were tested for their ability to stabilize ^99mTc-labelled depreotide. Each hydrophilic thioether was dissolved in water made up at 40 mg/mL and adjusted to pH 7 with HCl or NaOH. Each hydrophilic thioether (4 mg in 100 μL) was added to a formulated kit vial containing the peptide (“control” formulation in Table 1). To the control vials were added 100 μL water.

[2] = HPLC RCP of 99mTc-labelled depreotide kits with L-methionine; details: formulated kits stored under normal conditions (≦−10° C.)
Experimental: Lyophilized kit vials were prepared containing depreotide, L-methionine (Met), and other components as described in Table 3. All formulations were adjusted to pH 7.4 prior to lyophilization.
The lyophilized kits were radiolabelled with ^99mTc by reconstitution with 1.0 mL technetium ^99mTc sodium pertechnetate (Technelite®) containing approximately 50 mCi ^99mTc and heating in a boiling water bath for 10 minutes. Some of the formulations were also radiolabelled in a room temperature preparation (allowed to stand at room temperature 30 minutes following reconstitution).

[3] = HPLC RCP of 99mTc-labelled depreotide kits with L-methionine after accelerated temperature (40° C.) kit storage; assay type: physicochemical; details: lyophilized kits stored at 40° C. prior to radiolabelling
Experimental: Lyophilized kits were prepared containing depreotide, L-methionine (Met), and other components as described in Table 5. All formulations were adjusted to pH 7.4 prior to lyophilization. The kits were stored for one week at 40° C. Some kits were also stored at −10° C. as controls.
The lyophilized kits were radiolabelled with ^99mTc by reconstitution with 1.0 mL technetium ^99mTc sodium pertechnetate (Technelite®) containing approximately 50 mCi ^99mTc and incubation in a boiling water bath (10 min).

[4] = HPLC RCP of 99mTc-labelled benzodiazepinedione derivative kits with L-methionine; assay type: physicochemical; details: formulated kits
Experimental: L-methionine was tested for its ability to stabilize a ^99mTc-labelled glycoprotein IIb/IIIa receptor-binding benzodiazepinedione derivative 1-[(carboxyglycyl-glycyl-glycyl-cysteinamide)methyl]-4-(2-carboxyethyl)-7-[(4-amidinophenyl)methyl]-3,4-dihydro-1H-1,4-benzodiazepine-2,5-dione trifluoroacetate, having the structure.
All formulations were adjusted to pH 7.4 prior to lyophilization.
The lyophilized kits were radiolabelled with ^99mTc by reconstitution with 1.0 mL technetium ^99mTc sodium pertechnetate (Technelite®) containing approximately 50 mCi ^99mTc and heating in a boiling water bath for 10 minutes.

[5] = HPLC RCP of 99mTc-labelled glycoprotein IIb/IIIa receptor-binding peptide with L-methionine; assay type: physicochemical
Experimental: L-methionine was tested for its ability to stabilize a ^99mTc-labelled glycoprotein IIb/IIIa receptor-binding peptide having the structure.
Lyophilized kit vials were prepared containing the peptide (50 μg), sodium glucoheptonate dihydrate (10 mg), stannous chloride dihydrate (50 μg), and edetate disodium dihydrate (100 μg). The formulation was adjusted to pH 7.4 prior to lyophilization.
The lyophilized kits were radiolabelled with ^99mTc in the presence and absence of L-methionine. To the Met preparation was added 4 mg methionine (in 100 μL saline) and 100 μL ethanol. To the control preparation was added 100 μL ethanol and 100 μL saline to account for the additional saline or ethanol added with the L-methionine. Both vials were then reconstituted with 1.0 mL technetium ^99mTc sodium pertechnetate (Technelite®) containing approximately 50 mCi ^99mTc and allowed to incubate for 30 minutes at room temperature.

[6] = HPLC RCP of 99mTc-labelled monoamine, diamide, single thiol peptide chelator with L-methionine; assay type: physicochemical
Experimental: L-methionine was tested for its ability to stabilize a ^99mTc-labelled monoamine, diamide, single thiol peptide chelator having the structure.
Lyophilized kit “placebo” vials were prepared containing sodium glucoheptonate dihydrate, edetate disodium dihydrate, and stannous chloride dihydrate at the concentrations set forth in Table 1 (control formulation).
The peptide chelator was radiolabelled with ^99mTc in the presence and absence of L-methionine. The peptide chelator was dissolved in water at a concentration of 1 mg/mL, and 50 μg (50 μL) of the peptide was added to each of three placebo vials. Ethanol and L-methionine were added to the control and methionine preparations as described in Example 5. In addition, 100 μL phosphate buffered saline (PBS) was added to each preparation. The vials were reconstituted with 0.9-1.0 mL ^99mTc sodium pertechnetate (Technelite®) containing approximately 50 mCi ^99mTc, and heated in a boiling water bath for ten minutes.

[7] = HPLC RCP of 99mTc-labelled bisamine bisthiol non-peptide chelator with L-methionine; assay type: physicochemical
Experimental: L-methionine was tested for its ability to stabilize a ^99mTc-labelled non-peptide chelator (4-(butanoic acid)-2,2,9,9 tetramethyl-4,7-diaza-1,10-decanedithiol) having the structure.
The non-peptide chelator was radiolabelled with ^99mTc in the presence and absence of L-methionine using the placebo vial heated preparation procedure as described in Example 6.

[8] = Radiochemical purity (RCP) by reversed phase HPLC of 99mTc-labelled depreotide kits with gentisic acid; assay type: physicochemical; details: included in formulated kits
Experimental: Lyophilized kit vials were prepared containing depreotide, GA, and other components as described in Table 1. Formulations were adjusted to pH 7.4 or 8.5 (as noted) prior to lyophilization.

SMILES | Effect on radiolabelling yield and stability of 99mTc-labelled peptide (depreotide) [1] | 3.5 hr RCP [1] | 6.5 hr RCP [1] | Initial RCP [1] | also measured
CCSCCN [2-(Ethylthio)ethylamine] | increase | 94.2% | 93.3% | 92.8% | 
CS(=O)(=O)CC[C@H](N)C(=O)O [methionine sulfone, reference compound] | no effect |  |  |  | 
CSCC[C@H](N)CO [Methioninol, methioninol] | increase | 93.9% | 90.7% | 94.1% | 
CSCC(O)CO (stereo not drawn) [3-Methylthio-1,2-propanediol, 3-methylthio-1,2-propanediol] | increase | 84% | 80.9% | 89.1% | 
CSCC[C@H](N)C(=O)O [L-methionine] |  | 90.4% | 89.3% | 95% | Effect on radiolabelling yield and stability of 99mTc-depreotide [2]: increases; Stabilization of 99mTc-depreotide [3]: does not stabilize; Effect on radiolabelling yield and stability of 99mTc-labelled benzodiazepinedione derivative [4]: increases; Effect on radiolabelling yield and stability of the 99mTc-peptide [5]: increases; HPLC RCP (%) 0.5 hr ([5]; 99mTc-GPIIb/IIIa peptide, 4 mg methionine or none, room temperature 30 min, 0.5 hr): 96.7%; HPLC RCP (%) 3.5 hr ([5]; 99mTc-GPIIb/IIIa peptide, 4 mg methionine or none, room temperature 30 min, 3.5 hr): 96.9%; HPLC RCP (%) 6.5 hr ([5]; 99mTc-GPIIb/IIIa peptide, 4 mg methionine or none, room temperature 30 min, 6.5 hr): 96.2%; Effect on radiolabelling yield and stability of 99mTc-labelled peptide chelator [6]: increases; HPLC RCP (%) 0.5 hr ([6]; 99mTc-peptide chelator, 4 mg L-methionine or none, heated, 0.5 hr): 98.4%; HPLC RCP (%) 3 hr ([6]; 99mTc-peptide chelator, 4 mg L-methionine or none, heated, 3 hr): 97.2%; HPLC RCP (%) 6 hr ([6]; 99mTc-peptide chelator, 4 mg L-methionine or none, heated, 6 hr): 95.5%; HPLC RCP (%) 9 hr ([6]; 99mTc-peptide chelator, 4 mg L-methionine or none, heated, 9 hr): 92.8%; Effect on radiolabelling yield and stability of 99mTc-labelled non-peptide chelator [7]: increases; HPLC RCP (%) 0.5 hr ([7]; 99mTc-non-peptide chelator, 4 mg methionine or none, heated, 0.5 hr): 66.7%; HPLC RCP (%) 3 hr ([7]; 99mTc-non-peptide chelator, 4 mg methionine or none, heated, 3 hr): 70.0%; HPLC RCP (%) 6 hr ([7]; 99mTc-non-peptide chelator, 4 mg methionine or none, heated, 6 hr): 70.8%; HPLC RCP (%) 9 hr ([7]; 99mTc-non-peptide chelator, 4 mg methionine or none, heated, 9 hr): 70.4%
C[S+]([O-])CC[C@H](N)C(=O)O (stereo partly drawn) [Methionine sulfoxide, reference compound] | no effect |  |  |  | 
CSCCC=O [3-(methylthio)propionaldehyde, reference compound] | no effect |  |  |  | 
O=C(O)c1cc(O)ccc1O [gentisic acid, Gentisic acid] |  |  |  |  | Effect on radiolabelling yield and stability of 99mTc-depreotide [8]: decreases
